Results reported in ChEMBL document CHEMBL4382233, “Discovery of novel arylethenesulfonyl fluorides as potential candidates against methicillin-resistant of Staphylococcus aureus (MRSA) for overcoming multidrug resistance of bacterial infections” (2019).
Values after ≈ are worked out from the molar mass of the structure shown.

Legend:
Format in all cases: functional
[1] = test system: Staphylococcus epidermidis; test: Antibacterial activity against methicillin-resistant Staphylococcus epidermidis after overnight incubation by micro broth dilution analysis
[2] = test system: Staphylococcus haemolyticus; test: Antibacterial activity against methicillin-resistant Staphylococcus haemolyticus assessed as zone of inhibition at 50 ug/mL after 24 hrs by agar disc diffusion method; conditions: read-out: IZ
[3] = test system: Staphylococcus haemolyticus; test: Antibacterial activity against methicillin-resistant Staphylococcus haemolyticus after overnight incubation by micro broth dilution analysis
Staphylococcus aureus [4] = test: Antibacterial activity against methicillin-resistant Staphylococcus aureus after overnight incubation by micro broth dilution analysis
[5] = test system: Staphylococcus epidermidis; test: Antibacterial activity against methicillin-resistant Staphylococcus epidermidis assessed as zone of inhibition at 20 ug/mL after 24 hrs by agar disc diffusion method; conditions: read-out: IZ
Staphylococcus aureus [6] = test: Antibacterial activity against methicillin-resistant Staphylococcus aureus assessed as zone of inhibition at 50 ug/mL after 24 hrs by agar disc diffusion method; conditions: read-out: IZ

Row | Structure (SMILES) | MIC99 [1] [µg/mL] | zone of inhibition at 50 µg/mL [2] [mm] | MIC99 [3] [µg/mL] | MIC99 (Staphylococcus aureus [4]) [µg/mL] | zone of inhibition at 20 µg/mL [5] [mm] | zone of inhibition at 50 µg/mL (Staphylococcus aureus [6]) [mm]
1 | N#Cc1cccc(/C=C/C=C/S(=O)(=O)F)c1 | 50 (≈ 211 µM) | 5.1 | 51.2 (≈ 216 µM) | 41.2 (≈ 174 µM) | 4.5 | 3.5
2 | O=S(=O)(F)/C=C/C=C/c1ccc(Br)cc1 | 57 (≈ 196 µM) | 4.5 | 70 (≈ 241 µM) | 51.1 (≈ 176 µM) | 5.4 | 4.5
3 | O=S(=O)(F)/C=C/c1ccc(Oc2ccccc2)cc1 | 44.2 (≈ 159 µM) | 4.1 | 61.1 (≈ 220 µM) | 51.2 (≈ 184 µM) | 6.4 | 4.4
4 | Cc1ccc(S(=O)(=O)n2cc(/C=C/S(=O)(=O)F)c3ccccc32)cc1 | 51.2 (≈ 135 µM) | 4.2 | 58 (≈ 153 µM) | 47.1 (≈ 124 µM) | 4.1 | 5.1
5 | O=Cc1ccccc1/C=C/S(=O)(=O)F | 52.1 (≈ 243 µM) | 4.2 | 44.1 (≈ 206 µM) | 47.2 (≈ 220 µM) | 4.3 | 6.1
6 | Cc1ccc(S(=O)(=O)n2ccc3cc(/C=C/S(=O)(=O)F)ccc32)cc1 | 66 (≈ 174 µM) | 3.5 | 61 (≈ 161 µM) | 60.6 (≈ 160 µM) | 4.3 | 4.2
7 | Cc1ccc(/C=C/C=C/S(=O)(=O)F)cc1 | 57 (≈ 252 µM) | 4.3 | 51 (≈ 225 µM) | 60.6 (≈ 268 µM) | 4.1 | 4.1
8 | O=C(O)c1ccc(/C=C/S(=O)(=O)F)cc1 | 50.1 (≈ 217 µM) | 3.3 | 43.3 (≈ 188 µM) | 55.3 (≈ 240 µM) | 6.5 | 7.2
9 | O=S(=O)(F)/C=C/C=C/c1ccccc1C(F)(F)F | 52.6 (≈ 188 µM) | 4.3 | 55.1 (≈ 197 µM) | 55.1 (≈ 197 µM) | 4.1 | 4.1
10 | O=S(=O)(F)/C=C/c1ccc2ccccc2c1 | 43.1 (≈ 183 µM) | 3.5 | 65.5 (≈ 277 µM) | 47 (≈ 199 µM) | 4.4 | 7.2
11 | O=Cc1ccc(/C=C/S(=O)(=O)F)o1 | 61 (≈ 299 µM) | 4.5 | 55.1 (≈ 270 µM) | 0.845 (≈ 4.14 µM) | 7.4 | 7.2
12 | O=S(=O)(F)/C=C/C=C/c1ccc(F)c(F)c1 | 51.6 (≈ 208 µM) | 4.3 | 55.1 (≈ 222 µM) | 50.1 (≈ 202 µM) | 5.5 | 6.1
13 | O=S(=O)(F)/C=C/C=C/c1ccc(C(F)(F)F)cc1 | 55.2 (≈ 197 µM) | 4.5 | 67 (≈ 239 µM) | 59.1 (≈ 211 µM) | 6.5 | 5.1
14 | CCOC(=O)c1ccc(/C=C/S(=O)(=O)F)cc1 | 56.1 (≈ 217 µM) | 4.2 | 67.3 (≈ 261 µM) | 41.1 (≈ 159 µM) | 5.5 | 6.1
15 | O=Cc1ccc(/C=C/S(=O)(=O)F)cc1 | 48.2 (≈ 225 µM) | 5.2 | 60.1 (≈ 281 µM) | 45.6 (≈ 213 µM) | 4.3 | 6
16 | O=S(=O)(F)/C=C/c1coc2ccccc12 | 52.1 (≈ 231 µM) | 3.5 | 51 (≈ 225 µM) | 45 (≈ 199 µM) | 6.4 | 6.2
17 | O=S(=O)(F)/C=C/c1cccc(/C=C/S(=O)(=O)F)c1 | 41.2 (≈ 140 µM) | 4.4 | 50 (≈ 170 µM) | 44.1 (≈ 150 µM) | 6.5 | 4.2
